In patent US20200222400A1, “METHODS FOR THE TREATMENT OF NEUROLOGICAL DISORDERS” (Yumanity Therapeutics, Inc., priority 2019, published 2020):

Key:
[1] = tested on: SCD; test: Fatty acid saturation in guinea pig brain after oral SCD inhibitors (GC-FID of FAME); assay type: in vivo; settings: oral 25 mg/kg twice daily 5 days, vs vehicle
Method: FIG. 19A-FIG. 19F are a series of graphs showing an evaluation of fatty acid saturation in guinea pig brain after oral administration of SCD inhibitors. Guinea pigs were dosed orally with SCD inhibitors twice daily (every 12 hours) for 5 days. Guinea pigs were dosed with vehicle, SCD5 Selective Inhibitor 1 (“SCD5-SI-1”), SCD5 Selective Inhibitor 2 (“SCD5-SI-2”), CAY10566 (“CAY”) or SCD1/SCD5 Inhibitor 1 (“SCD1/5-1”), all compounds at 25 mg/kg with a volume-matched vehicle control. Four hours after the last dose on day 5, guinea pigs were sacrificed, and brains were removed after whole-body saline perfusion. […] Samples were evaluated on a gas chromatograph with a flame ionization detector (GC-FID) to quantify a comprehensive panel of fatty acid species. Brain samples were evaluated for levels of 16 (FIG. 19A) and 18 (FIG. 19B) carbon-containing fatty acids (C16, C18 respectively), and the desaturation index (DI) was calculated by taking the ratio of desaturated to saturated fatty acid for each species. […] Brain samples were evaluated for the relative levels of the positional isomers of C16, including C16:1 n7 palmitoleic acid (FIG. 19C) or C16:1 n9 monounsaturated fatty acids (FIG. 19D). […] Data was analyzed by one-way ANOVA with Tukey's post-hoc test to account for multiple comparisons. ** p<0.01, *** p<0.005, **** p<0.0001. […]

[2] = tested on: alpha-synuclein transfected U2OS cells; test: U2OS ATP assay (alpha-synuclein toxicity); assay type: cell-based, human; settings: 72 h, titration
Method: U2OS cells were trypsinized using 0.25% trypsin-EDTA (Thermo Fisher) for 5 min at 37° C. followed by centrifugation at 800 rpm for 5 min at room temperature. Cell pellets were re-suspended in SE solution (Lonza Biologics, Inc.) at a density of […]. Alpha-synuclein wild-type or empty control (pcDNA) plasmids were transfected at a ratio of […] per 1,000,000 cells. For genetic modifier studies, mRab1a was titrated at various concentrations in the presence of SNCA plasmids. Nucleofection was performed using 4D-NUCLEOFECTOR™ System (Lonza Biosciences, Inc.) under program code CM130 in either 20 μL Nucleocuvette™ strips or 100 μl single Nucleocuvettes™. Cells recovered at room temperature for 10-15 minutes after nucleofection before further handling. Pre-warmed medium was added and cells were thoroughly but gently mixed to a homogenous suspension before plating. Cells were seeded at 2×10^4 cells/100 μl/well into 96 well PLD-coated white plates (Corning, Inc.) using a customized semi-automated pipetting program (VIAFLO 384/96, Integra Biosciences).
Powders of reference SCD inhibitors (CAY10566, A939572 and MF-438) were resuspended and serial diluted in DMSO. […] ATP content was then measured using the CellTiter-Glo® kit (Promega) with luminescence signals measured on an EnVision multimode plate reader (Perkin Elmer).

[3] = tested on: human iPSC-derived neurons harboring the alpha-synuclein A53T mutation; test: Neuron survival assay, iPSC-derived neurons harboring alpha-synuclein A53T mutation; assay type: cell-based; settings: 100 nM and 30 nM, relative to DMSO in A53T neurons
Method: Human control and patient-derived trans-differentiated neurons were transfected with an RFP reporter driven by the human MAP2 promoter (MAP2-mApple) following the protocol for rat primary neurons as described above with the following exceptions: lipofection was carried out for approximately 1 h, and the final media replacement was with BrainPhys™ media supplemented with BDNF, GNDF, cAMP, ascorbic acid, and laminin.
Transfected neuronal cultures were imaged at 12-24 h intervals for the indicated number of days by robotic microscopy. Fluorescence images were acquired with a Nikon Eclipse Ti microscope equipped with a motorized stage, 20× extra-long working distance (ELWD) objective, and an Andor Zyla cMOS camera. During image acquisition, microplates were enclosed in an on-stage environmental chamber controlling temperature, CO2, and humidity (Okolab). Images were processed and analyzed with custom-made scripts in R and ImageJ software. The lifetimes of individual neurons were determined by tracking fluorescently-labeled neurons in ImageJ. Neuronal death was determined to occur upon incidence of RFP signal loss or rupture of cell body. Cox proportional hazards analysis was used to generate cumulative hazard plots and determine the risk of neuron death. Log-rank test was used to determine statistical significance of survival curve divergence between neuron cohorts.

Cc1nnc(-c2ccc(N3CCC(Oc4cc(F)ccc4Cl)CC3)nn2)o1 [CAY10566]
C16 desaturation index (DI), brain [1]: decreased the C16 DI
cellular ATP levels [2]: significantly reversed alpha-synuclein-dependent decreases in ATP levels in a concentration-dependent fashion
risk of neuron death [3]: significantly reduced
